US11415579B2, “Assay for measuring a rate of reaction between a target and a ligand candidate” (Imperial College Innovations Ltd., priority 2016, dated 2022)

Columns and labels:
Cdk2(S276C) (C177A) = target: T1, Cdk2(S276C) (C177A) (Homo sapiens, UniProt P24941, C177A/S276C); test: Kinetic thiol consumption assay with Cdk2 mutant S276C; type: binding; parameters: key to Rate enhancement, Cdk2 S276C: rate constant with Cdk2 ÷ rate constant with model thiol (fold); conditions: additional mutation C177A; for Rate constant with Cdk2 S276C: Protein: Cdk2, cysteine position S276C, in h^-1
T1 construct: poly-histidine; made in house; host or cells: E. coli
How it was run: (§1)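 Thiol consumption was monitored kinetically using 5 μM Cdk2 (C177A plus one introduced cysteine) in degassed phosphate buffer at pH 8 with TCEP beads. Plates were kept 1 h at room temperature before fluorescence reading, and rate constants came from exponential decay fitting.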

Cdk2(N272C) (C177A) = target: T2, Cdk2(N272C) (C177A) (Homo sapiens, UniProt P24941, C177A/N272C); test: Kinetic thiol consumption assay with Cdk2 mutant N272C; type: binding; parameters: key to Rate enhancement, Cdk2 N272: rate constant with Cdk2 ÷ rate constant with model thiol (fold); conditions: for Rate enhancement, Cdk2 N272: Cdk2 N272, additional mutation C177A; for Rate constant with Cdk2 N272C: Protein: Cdk2, cysteine position N272C, additional mutation C177A, in h^-1
T2 construct: poly-histidine; made in house; host or cells: E. coli
How it was run: as §1

Cdk2(S181C) (C177A) = target: T3, Cdk2(S181C) (C177A) (Homo sapiens, UniProt P24941, C177A/S181C); test: Kinetic thiol consumption assay with Cdk2 mutant S181C; type: binding; parameters: key to Rate enhancement, Cdk2 S181C: rate constant with Cdk2 ÷ rate constant with model thiol (fold); conditions: additional mutation C177A; for Rate constant with Cdk2 S181C: Protein: Cdk2, cysteine position S181C, in h^-1
T3 construct: poly-histidine; made in house; host or cells: E. coli
How it was run: as §1

Cdk2(R122C) (C177A) = target: T4, Cdk2(R122C) (C177A) (Homo sapiens, UniProt P24941, C177A/R122C); test: Kinetic thiol consumption assay with Cdk2 mutant R122C; type: binding; parameters: key to Rate enhancement, Cdk2 R122C: rate constant with Cdk2 ÷ rate constant with model thiol (fold); conditions: additional mutation C177A; for Rate constant with Cdk2 R122C: Protein: Cdk2, cysteine position R122C, in h-1
T4 construct: poly-histidine; made in house; host or cells: E. coli
How it was run: as §1

Cdk2[C177A, F80C, K278C] = target: T5, Cdk2[C177A, F80C, K278C] (Homo sapiens, UniProt P24941, C177A/F80C/K278C); test: Kinetic thiol consumption assay with mutant Cdk2 as model thiol; type: binding; parameters: unit not given here; conditions: 500 μM ligand, 5 μM thiol, phosphate buffer pH 8
T5 construct: poly-histidine; made in house; host or cells: E. coli
Experimental: A library of 120 acrylamides was screened against a) human cyclin-dependent kinase 2 (Cdk2, which contains one surface exposed cysteine residue—C177), prepared by cloning cDNA into the pRSETA bacterial expression vector to generate a poly-histidine tagged Cdk2 fusion that was purified from E. coli using standard techniques, and b) a model thiol (specific details are given below). The structures of these 120 acrylamides are set out in Table 1, above.
To wells containing 150 μL thiol (Cdk2 or model thiol) (5 μM) in degassed phosphate buffer (pH 8) was added immobilized TCEP beads (2% v/v).
After incubation of the fluorescence plates for 1 hour at room temperature, fluorescence measurements (excitation/emission of 380/470 nm) were taken on a PerkinElmer EnVision multilabel plate reader and processed with EnVision Workstation version 1.12.
Fluorescence measurements were normalized against a DMSO/thiol only control and plotted against time.
Rate constants were calculated using GraphPad software Prism version 6 by fitting a first order exponential decay to the data. The rate constant for each acrylamide with Cdk2 was divided by the rate constant for that fragment with the model thiol to provide the rate enhancement for each ligand candidate.
The model thiol used in Example 2 is a mutant form of human Cdk2 (C177A, F80C, K278C) which contains two engineered surface exposed cysteine residues. Mutations were introduced by site-directed mutagenesis and the resulting cDNA was cloned into the pRSETA bacterial expression vector to generate a poly-histidine tagged Cdk2 fusion that was purified from E. coli using standard techniques.

[1] = Kinetic thiol consumption assay with model thiol glutathione; type: physicochemical; parameters: Rate constant with glutathione (k(GSH)): unit not given here; conditions: for Rate constant with glutathione (k(GSH)): 500 μM ligand, 5 μM thiol, phosphate buffer pH 8; for Rate constant with Glutathione: Protein: Glutathione, cysteine position NA, in h-1
How it was run: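 Rate constants for acrylamide reaction with 5 μM glutathione come from first-order exponential fits of normalized fluorescence decay (ex 380, em 470 nm). Reactions run in degassed phosphate buffer at pH 8 containing TCEP beads, room temperature.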

Cdk2(C177A, F80C) = target: T6, Cdk2(C177A, F80C) (Homo sapiens, UniProt P24941, C177A/F80C); test: Kinetic thiol consumption assay with Cdk2 mutant F80C, incl. kobs versus concentration (Kd, k2); type: binding; parameters: key to Rate enhancement, Cdk2 F80C: Cdk2 rate constant divided by model-thiol rate constant; conditions: additional mutation C177A; for Rate constant with Cdk2 F80C: Protein: Cdk2, cysteine position F80C, in h^-1
T6 construct: poly-histidine; made in house; host or cells: E. coli
How it was run: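 His-tagged Cdk2(C177A/F80C) from E. coli or model thiol, 5 μM in degassed phosphate buffer pH 8 with TCEP beads, reacted with acrylamide ligands; fluorescence (ex/em 380/470 nm) normalized to DMSO control and fitted to first-order decay for kobs. Kd and k2 obtained from hyperbolic fit of kobs versus ligand concentration.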

Cdk2(T182C) (C177A) = target: T7, Cdk2(T182C) (C177A) (Homo sapiens, UniProt P24941, C177A/T182C); test: Kinetic thiol consumption assay with Cdk2 mutant T182C; type: binding; parameters: key to Rate enhancement, Cdk2 T182C: rate constant with Cdk2 ÷ rate constant with model thiol (fold); conditions: additional mutation C177A; for Rate constant with Cdk2 T182C: Protein: Cdk2, cysteine position T182C, in h^-1
T7 construct: poly-histidine; made in house; host or cells: E. coli
How it was run: as §1

Cdk2(H71C) (C177A) = target: T8, Cdk2(H71C) (C177A) (Homo sapiens, UniProt P24941, C177A/H71C); test: Kinetic thiol consumption assay with Cdk2 mutant H71C; type: binding; parameters: key to Rate enhancement, Cdk2 H71C: rate constant with Cdk2 ÷ rate constant with model thiol (fold); conditions: additional mutation C177A; for Rate constant with Cdk2 H71C: Protein: Cdk2, cysteine position H71C, in h^-1
T8 construct: poly-histidine; made in house; host or cells: E. coli
How it was run: as §1

[2] = target: T9, human cyclin-dependent kinase 2 (Cdk2) (Homo sapiens, UniProt P24941); test: Kinetic thiol consumption assay with wild type Cdk2 (C177); type: binding; parameters: key to Rate enhancement, Cdk2 WT: k(Cdk2) divided by k(model thiol); Rate constant with Cdk2 (k(Cdk2)): unit not given here; conditions: for Rate constant with Cdk2 (k(Cdk2)): 500 μM ligand, 5 μM thiol, phosphate buffer pH 8; for Rate enhancement, Cdk2 WT: no additional mutations; for Rate constant with Cdk2 WT: Protein: Cdk2, cysteine position WT, in h^-1; for k(Cdk2)/k(Cdk2_mut) rate enhancement: model thiol Cdk2[C177A, F80C, K278C]; for k(Cdk2)/k(GSH) rate enhancement: model thiol glutathione
T9 construct: poly-histidine; made in house; host or cells: E. coli
How it was run: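 Rate constants came from first-order exponential decay fits of normalized fluorescence against time, with thiol (5 μM) in degassed pH 8 phosphate buffer containing 2% v/v TCEP beads and reads after 1 h at room temperature.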

Rate enhancement, Cdk2 S276C (Cdk2(S276C) (C177A)) | Rate constant with Cdk2 S276C (Cdk2(S276C) (C177A)) | Rate enhancement, Cdk2 N272 (Cdk2(N272C) (C177A)) | Rate constant with Cdk2 N272C (Cdk2(N272C) (C177A)) | Rate enhancement, Cdk2 S181C (Cdk2(S181C) (C177A)) | Rate constant with Cdk2 S181C (Cdk2(S181C) (C177A)) | Rate enhancement, Cdk2 R122C (Cdk2(R122C) (C177A)) | Rate constant with Cdk2 R122C (Cdk2(R122C) (C177A)) | Rate constant with Cdk2[C177A, F80C, K278C] (k(Cdk2_mut)) (Cdk2[C177A, F80C, K278C]) | Rate enhancement, Cdk2 F80C (Cdk2(C177A, F80C)) | Rate constant with Cdk2 F80C (Cdk2(C177A, F80C)) | Rate enhancement, Cdk2 T182C (Cdk2(T182C) (C177A)) | Rate constant with Cdk2 T182C (Cdk2(T182C) (C177A)) | Rate enhancement, Cdk2 H71C (Cdk2(H71C) (C177A)) | Rate constant with Cdk2 (k(Cdk2)) [2] | Rate enhancement, Cdk2 WT [2] | Rate constant with Cdk2 WT [2] | k(Cdk2)/k(Cdk2_mut) rate enhancement [2] | SMILES | Rate constant with glutathione (k(GSH)) [1] | Rate constant with Glutathione [1] | also measured
1.07 | 0.06352 | 0.3725 | 0.02211 | 0.1273 | 0.007555 | 0.1023 | 0.006071 | 0.00171 | 0.05133 | 0.003047 | 6.607 | 0.3922 | 0.4092 | 0.02529 | 0.5566 | 0.03304 | 14.75 | C=CC(=O)NC1(c2noc(C)n2)CCCCCC1 [CA-162] | 0.02564 | 0.05936 | Rate constant with Cdk2 H71C (Cdk2(H71C) (C177A)): 0.02429; k(Cdk2)/k(GSH) rate enhancement [2]: 0.9863
0.03818 | 0.007587 | 0.3173 | 0.06304 | 0.2482 | 0.04931 | 0.08933 | 0.01775 | 1.161 | 2.57 | 0.5106 | 1.883 | 0.3741 | 1.537 | 0.55 | 2.768 | 0.55 | 0.4737 | C=CC(=O)N1CC2(CCC2)c2c(F)cccc21 [CA-188] | 0.1903 | 0.1987 | Rate constant with Cdk2 H71C (Cdk2(H71C) (C177A)): 0.3055; k(Cdk2)/k(GSH) rate enhancement [2]: 2.89
0.6649 | 0.006132 | 0.4916 | 0.004534 | 4.96 | 0.04575 | 0.4828 | 0.004453 | 0.0021 | 0.1408 | 0.001299 | 0.8366 | 0.007716 | 0.2998 | 0.00553 | 1.018 | 0.00939 | 2.634 | C=CC(=O)N1CCCN(Cc2noc(C3CC3)n2)CC1 [CA-079] | 0.00593 | 0.009223 | Rate constant with Cdk2 H71C (Cdk2(H71C) (C177A)): 0.002765; k(Cdk2)/k(GSH) rate enhancement [2]: 0.9328

Second part, the compound before the results:

SMILES | Rate enhancement, Cdk2 S276C (Cdk2(S276C) (C177A)) | Rate constant with Cdk2 S276C (Cdk2(S276C) (C177A)) | Rate enhancement, Cdk2 N272 (Cdk2(N272C) (C177A)) | Rate constant with Cdk2 N272C (Cdk2(N272C) (C177A)) | Rate enhancement, Cdk2 S181C (Cdk2(S181C) (C177A)) | Rate constant with Cdk2 S181C (Cdk2(S181C) (C177A)) | Rate enhancement, Cdk2 R122C (Cdk2(R122C) (C177A)) | Rate constant with Cdk2 R122C (Cdk2(R122C) (C177A)) | Rate constant with Cdk2[C177A, F80C, K278C] (k(Cdk2_mut)) (Cdk2[C177A, F80C, K278C]) | Rate enhancement, Cdk2 F80C (Cdk2(C177A, F80C)) | Rate constant with Cdk2 F80C (Cdk2(C177A, F80C)) | Rate enhancement, Cdk2 T182C (Cdk2(T182C) (C177A)) | Rate constant with Cdk2 T182C (Cdk2(T182C) (C177A)) | Rate enhancement, Cdk2 H71C (Cdk2(H71C) (C177A)) | Rate constant with Cdk2 (k(Cdk2)) [2] | Rate enhancement, Cdk2 WT [2] | Rate constant with Cdk2 WT [2] | k(Cdk2)/k(Cdk2_mut) rate enhancement [2] | Rate constant with glutathione (k(GSH)) [1] | Rate constant with Glutathione [1] | also measured
C=CC(=O)Nc1cccc(-c2cc3ccccc3[nH]2)c1 [EL-1098] | 1.017 | 0.0117 | 0.8491 | 0.009773 | 0.4335 | 0.00499 | 0.5598 | 0.006443 | 0.03487 | 0.7203 | 0.008291 | 2.526 | 0.02907 | 0.2587 | 0.01063 | 0.9235 | 0.01063 | 0.3049 | 0.01147 | 0.01151 | Rate constant with Cdk2 H71C (Cdk2(H71C) (C177A)): 0.002978; k(Cdk2)/k(GSH) rate enhancement [2]: 0.9268
C=CC(=O)N1CC2CC2C1 (centres unmarked) [CA-211] | 0.4691 | 0.004395 | 2.443 | 0.02289 | 2.498 | 0.02341 | 0.3837 | 0.003595 | 0.00172 | 0.2496 | 0.002339 | 2.18 | 0.02043 | 0 | 0.00368 | 0.3928 | 0.003681 | 2.144 | 0.00538 | 0.00937 | k(Cdk2)/k(GSH) rate enhancement [2]: 0.6839
C=CC(=O)NC(C)c1cc(OC)c(OC)c(OC)c1 (centres unmarked) [EL-1101] | 0.9981 | 0.007413 | 0.6801 | 0.005051 | 0.396 | 0.002941 | 0.3078 | 0.002286 | 0.00226 | 0.3417 | 0.002538 | 1.305 | 0.009691 | 0.8384 | 0.00341 | 0.4606 | 0.003421 | 1.51 | 0.0078 | 0.007427 | Rate constant with Cdk2 H71C (Cdk2(H71C) (C177A)): 0.006227; k(Cdk2)/k(GSH) rate enhancement [2]: 0.4373
